In PMC12250129, “Exploring the Therapeutic Potential of ^177Lu-PSMA-617 in a Mouse Model of Prostate Cancer Bone Metastases” (International Journal of Molecular Sciences, 2025):

Columns and labels:
PSMA = target: T1, PSMA (Homo sapiens, UniProt Q04609); assay: Saturation binding assay on intact LNCaP cells; conditions: 1 h at 4 °C
T1 construct: host or cells: LNCaP human prostate cancer cells
Protocol: The competitive inhibition assay was performed in 10^5 LNCaP cells/well as previously described. The radioligand (^177Lu-PSMA-617) was added as a 0.75 nM solution to 10 different concentrations of non-labeled, ^natLu-labeled PSMA-617 (from 0.01 to 10,000 nM). After 1 h of incubation at 4 °C, the cells were washed with ice-cold PBS, and the cell-bound radioactivity was measured in a gamma counter (PerkinElmer, Waltham, MA, USA). The IC50 (half-maximal inhibitory concentration) value was determined using GraphPad Prism version 5.0 (Graph Pad Software, San Diego, CA, USA). Determination of the dissociation constants (Kd values) was performed by saturation binding assays using LNCaP cells. A total of 10^5 cells were seeded in 96-well plates (cells in 100 µL of the RPMI medium/well), allowing adhesion and growth overnight at 37 °C and 5% CO2. […] The Kd values were determined by plotting specific binding (total binding minus unspecific binding) against the molar concentration of the added radioligands followed by nonlinear regression analysis using the GraphPad Prism 5 software. The binding affinity (Ki) of ^177/natLu-PSMA-617 was calculated using the following formula as described previously: Ki = IC50/[1 + ([radioligand]/Kd)].

[1] = tested on: bone metastases of LNCaP-luc prostate cancer; assay: Biodistribution in mice with bone metastases of LNCaP-luc prostate cancer (gamma counter); assay type: in vivo, mouse
Protocol: An in vivo imaging system was used for bioluminescence imaging (BLI) to visualize ASID mice with bone metastases of LNCaP-luc prostate cancer before the administration of ^177Lu-PSMA-617 (Figure 4A). Subsequently, ^177Lu-PSMA-617 (~37 MBq of Lu-177) was administered intravenously to mice with bone metastases, and NanoSPECT/CT imaging was performed at 4, 24, and 48 h post-administration (Figure 4B). Additionally, the mice were sacrificed, and their organs and tissues were extracted for quantitative analysis using a gamma counter at 1, 4, 24, and 48 h after injection (Figure 4C).
LNCaP-luc cells were harvested from culture and resuspended to 2 × 10^7 cells/mL in PBS. The cells were combined with an equal volume of Matrigel (BD Biosciences, Bedford, MA, USA) such that 5 × 10^5 cells were prepared for injection into the right tibia of anesthetized (inhaled anesthetic of 1–2% isoflurane) ASID mice. Intratibial injections were performed using a 29-gauge, 0.5-inch needle inserted through the tibial plateau of the flexed knee as described previously. The tumor was imaged, detected, and measured using a Bruker Small Animal Optical Imaging System (In Vivo Xtreme; Billerica, MA, USA). Mice were anesthetized with a mixture of oxygen and isoflurane, then intraperitoneally injected with 100 μL of D-luciferin (Xenogen; 30 mg/mL in PBS).
Mice received an intravenous injection of ^177Lu-PSMA-617 (equivalent to 37 MBq of ^177Lu) at 45 days after tumor implantation. The NanoSPECT/CT (Mediso Medical Imaging Systems, Arlington, VA, USA) was used to image in vivo. After the administration of ^177Lu-PSMA-617, mice inhaled an anesthetic containing 1–2% isoflurane during imaging acquisition. SPECT and X-ray CT images were obtained at 1, 4, 24, and 48 h after injection. NanoSPECT imaging was acquired using nine multipinhole gamma detectors and high-resolution collimators. The energy window was set to […] ± 10%; the image size was set to 256 × 256, and the field of view of 60 mm × 100 mm was used. Mice received an intravenous injection of ^177Lu-PSMA-617 (equivalent to 37 MBq of ^177Lu) at 45 days after tumor implantation. The distribution of ^177Lu-PSMA-617 in the mice bearing tumors was evaluated by a gamma counter (PerkinElmer, Waltham, MA, USA). The mice were sacrificed by carbon dioxide euthanasia at 1, 4, 24, and 48 h after administration. The blood, tumor, and normal organ/tissue were collected, and the uptake of radioactivity was measured by a gamma counter. The distribution data obtained using radioactivity count methods are plotted as %ID/g.

T1 sequence (Q04609 whole entry): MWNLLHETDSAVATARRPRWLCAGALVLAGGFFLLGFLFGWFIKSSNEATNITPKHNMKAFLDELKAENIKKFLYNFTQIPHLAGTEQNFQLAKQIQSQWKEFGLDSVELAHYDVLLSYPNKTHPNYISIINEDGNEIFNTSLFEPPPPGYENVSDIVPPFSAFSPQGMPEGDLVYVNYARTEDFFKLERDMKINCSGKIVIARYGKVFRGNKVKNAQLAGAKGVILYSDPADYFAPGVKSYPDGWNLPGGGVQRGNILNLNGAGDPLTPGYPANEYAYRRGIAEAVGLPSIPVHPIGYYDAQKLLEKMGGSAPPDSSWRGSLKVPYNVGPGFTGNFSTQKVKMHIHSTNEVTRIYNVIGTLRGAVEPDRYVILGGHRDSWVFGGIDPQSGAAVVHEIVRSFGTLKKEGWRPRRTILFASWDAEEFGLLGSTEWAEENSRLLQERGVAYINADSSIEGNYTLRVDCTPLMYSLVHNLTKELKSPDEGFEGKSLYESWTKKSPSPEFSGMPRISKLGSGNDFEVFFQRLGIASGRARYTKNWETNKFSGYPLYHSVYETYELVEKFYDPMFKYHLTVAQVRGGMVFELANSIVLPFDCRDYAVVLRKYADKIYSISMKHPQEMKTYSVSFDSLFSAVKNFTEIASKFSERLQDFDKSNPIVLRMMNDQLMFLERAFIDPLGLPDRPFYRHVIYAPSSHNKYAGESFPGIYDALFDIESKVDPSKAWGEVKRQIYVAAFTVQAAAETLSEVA

## O=C([O-])CN1CCN(CC(=O)[O-])CCN(CC(=O)NCC2CCC(C(=O)N[C@@H](Cc3ccc4ccccc4c3)C(=O)NCCCC[C@H](NC(=O)N[C@@H](CCC(=O)O)C(=O)O)C(=O)O)CC2)CCN(CC(=O)[O-])CC1.[177Lu+3] (stereo partly drawn) [^177Lu-PSMA-617]
PSMA
  Kd: 4.36 ± 0.664 nM
[1]; 1 h post-injection
  tumor-to-blood ratio: 69.5
  tumor-to-kidney ratio: 0.3
  tumor-to-muscle ratio: 60.2
[1]; 1 h post-injection, i.v., ~37 MBq
  uptake in kidneys: 43.83 ± 3.41 %IA/g
[1]; 4 h post-injection, i.v., ~37 MBq
  uptake in LNCaP tumors: 23.31 ± 0.94 %IA/g
[1]; 24 h post-injection (maximum)
  tumor-to-blood ratio: 434.4
[1]; 24 h post-injection (peak)
  tumor-to-muscle ratio: 857.4
[1]; 24 h post-injection, i.v., ~37 MBq
  uptake in LNCaP tumors: 12.88 ± 0.55 %IA/g
[1]; 48 h post-injection (maximum)
  tumor-to-kidney ratio: 26.3
[1]; i.v., ~37 MBq
  uptake in liver, lungs and spleen: low uptake
[1]; within 24 h
  urinary clearance: > 90%
